Assay results: publication PMC4476799, “Englerin A Agonizes the TRPC4/C5 Cation Channels to Inhibit Tumor Cell Line Proliferation” (PLoS ONE, 2015)
Where two headings read alike, the source gives them in different places.

Test system: cancer cell lines from the cancer cell line encyclopedia (CCLE)
Experiment: Cell line profiling (CLiP) proliferation experiment
Format: cell-based
Details: Homo sapiens; for EC50: read-out: Inflection Point; for IC50: read-out: Crossing Point
Method: Compound profiling experiment and data analysis was performed as previously described. Data was imported and plotted using the Tibco Spotfire DXP application. Lines were categorized as sensitive, intermediate and refractory as follows: Amax<-40 & Inflection Point <2 ~ Sensitive, Amax>-20 & Inflection Point >10 ~ Refractory, all else were called Intermediate. Cancer Cell line HG-U133 Plus 2 data was processed and normalized as described. […] Five sets of refractory cell lines were generated from the pool of refractory cell lines trying to match the lineage composition of the set of sensitive cell lines. The limma package was used as previously described to perform the statistical comparison.

[1] = MKN-74, cell line MKN74 (stomach)
[2] = MM1.S, cell line MM1-S (haematopoietic_and_lymphoid_tissue)
[3] = MOLM-13, cell line MOLM-13 (haematopoietic_and_lymphoid_tissue)
[4] = MOLP-8, cell line MOLP-8 (haematopoietic_and_lymphoid_tissue)
[5] = MOLT-16, cell line MOLT-16 (haematopoietic_and_lymphoid_tissue)
[6] = MONO-MAC-6, cell line MONO-MAC-6 (haematopoietic_and_lymphoid_tissue)
[7] = MV4-11, cell line MV-4-11 (haematopoietic_and_lymphoid_tissue)
[8] = NCI-H82, NCI-H82, lung, small_cell_carcinoma
[9] = NCI-H441, NCI-H441, lung, adenocarcinoma
[10] = NCI-H647, NCI-H647, lung, mixed_adenosquamous_carcinoma
[11] = NCI-H650, NCI-H650, lung, bronchioloalveolar_adenocarcinoma
[12] = NCI-H716, NCI-H716, large_intestine, adenocarcinoma
[13] = NCI-H810, NCI-H810, lung, large_cell_carcinoma
[14] = NCI-H1092, cell line NCI-H1092 (lung)
[15] = NCI-H1299, cell line NCI-H1299 (lung)
[16] = NCI-H1563, cell line NCI-H1563 (lung)
[17] = NCI-H1581, cell line NCI-H1581 (lung)

`CC(C)[C@@]12C[C@@H](O)[C@@](C)(O1)[C@@H]1CC[C@@H](C)[C@H]1[C@@H]2OC(=O)/C=C/c1ccccc1` [Englerin B] was tested, and the EC50 (MIA PaCa-2, cell line MIA PaCa-2 (pancreas)) was 11.3 µM, the IC50 (MKN-1, cell line MKN1 (stomach)) was > 30 µM and the IC50 (MKN-1, cell line MKN1) was > 30 µM. For the same compound, the IC50 (MKN-7, MKN7 (stomach)) was > 30 µM, the IC50 (MKN-7, cell line MKN7 (stomach)) was > 30 µM and the IC50 (MKN-45, MKN-45 (stomach)) was > 30 µM. The IC50 (MKN-45, cell line MKN-45 (stomach)) was > 30 µM, the IC50 [1] was 27.5 µM and the EC50 [1] was 27.5 µM. For the same compound, the IC50 [2] was > 30 µM, the EC50 [2] was 25.6 µM and the IC50 (MM1.S, cell line MM1-S) was > 30 µM. The EC50 (MOLM-13, MOLM-13 (haematopoietic_and_lymphoid_tissue)) was 13.1 µM, the IC50 [3] was 13.4 µM and the EC50 [3] was 13.1 µM. For the same compound, the IC50 [4] was 16.6 µM, the EC50 [4] was 12.1 µM and the IC50 (MOLP-8, cell line MOLP-8) was 16.6 µM. The IC50 [5] was 23.3 µM, the EC50 [5] was 23.3 µM and the IC50 [6] was 18.4 µM. The EC50 [6] was 18.4 µM, the IC50 (MSTO-211H, cell line MSTO-211H (pleura)) was 27.7 µM and the IC50 (MV4-11, MV-4-11 cells) was 11.4 µM. It also gave an EC50 (MV4-11, MV-4-11 cells) of 11.4 µM, an IC50 [7] of 11.4 µM and an EC50 [7] of 11.4 µM. For the same compound, the IC50 (Malme-3M, Malme-3M (skin)) was > 30 µM, the IC50 (Malme-3M, Malme-3M cells) was > 30 µM and the IC50 (Maver1, MAVER-1 (haematopoietic_and_lymphoid_tissue)) was 13.2 µM. It also gave an IC50 (MeWo, cell line MeWo (skin)) of 26.2 µM, an EC50 (MeWo, cell line MeWo (skin)) of 22.6 µM and an IC50 (NALM-6, cell line NALM-6 (haematopoietic_and_lymphoid_tissue)) of 11.8 µM. For the same compound, the IC50 (NCI-H28, NCI-H28, pleura, NS) was 11.9 µM, the EC50 (NCI-H28, NCI-H28, pleura, NS) was 10.5 µM and the IC50 [8] was 19.6 µM. The EC50 [8] was 19.6 µM, the IC50 (NCI-H82, NCI-H82 cells) was 19.6 µM and the EC50 (NCI-H82, NCI-H82 cells) was 19.6 µM. For the same compound, the IC50 (NCI-H146, NCI-H146 cells) was > 30 µM, the IC50 (NCI-H146, cell line NCI-H146 (lung)) was > 30 µM and the IC50 (NCI-H226, NCI-H226, lung, squamous_cell_carcinoma) was > 30 µM. For the same compound, the IC50 (NCI-H226, cell line NCI-H226) was > 30 µM, the IC50 (NCI-H358, NCI-H358, lung, bronchioloalveolar_adenocarcinoma) was 22.8 µM and the IC50 [9] was > 30 µM. For the same compound, the EC50 [9] was 12.7 µM, the IC50 (NCI-H441, cell line NCI-H441) was > 30 µM and the IC50 (NCI-H460, NCI-H460, lung, large_cell_carcinoma) was > 30 µM. For the same compound, the IC50 (NCI-H460, cell line NCI-H460) was > 30 µM, the IC50 (NCI-H520, NCI-H520, lung, squamous_cell_carcinoma) was > 30 µM and the IC50 (NCI-H520, NCI-H520 cells) was > 30 µM. For the same compound, the IC50 (NCI-H596, NCI-H596, lung, mixed_adenosquamous_carcinoma) was > 30 µM, the IC50 (NCI-H596, NCI-H596 cells) was > 30 µM and the IC50 [10] was 15 µM. For the same compound, the EC50 [10] was 15 µM, the IC50 [11] was 15.8 µM and the EC50 [11] was 15.8 µM. For the same compound, the IC50 (NCI-H650, NCI-H650 cells) was 15.8 µM, the EC50 (NCI-H650, NCI-H650 cells) was 15.8 µM and the IC50 (NCI-H661, NCI-H661, lung, large_cell_carcinoma) was > 30 µM. The IC50 (NCI-H661, NCI-H661 cells) was > 30 µM, the IC50 [12] was 29.8 µM and the EC50 [12] was 21.4 µM. The EC50 (NCI-H716, NCI-H716 cells) was 21.4 µM, the IC50 (NCI-H727, NCI-H727, lung, NS) was > 30 µM and the IC50 (NCI-H727, cell line NCI-H727) was > 30 µM. The IC50 [13] was 26.6 µM, the EC50 [13] was 21.1 µM and the IC50 (NCI-H838, NCI-H838, lung, adenocarcinoma) was > 30 µM. The IC50 (NCI-H838, NCI-H838 cells) was > 30 µM, the IC50 (NCI-H1048, cell line NCI-H1048 (lung)) was 4.81 µM and the IC50 [14] was > 30 µM. For the same compound, the EC50 [14] was 3.48 µM, the IC50 (NCI-H1092, cell line NCI-H1092) was > 30 µM and the IC50 [15] was 13 µM. The EC50 [15] was 11.3 µM, the IC50 (NCI-H1355, cell line NCI-H1355 (lung)) was 10.7 µM and the IC50 (NCI-H1437, NCI-H1437 cells) was > 30 µM. The IC50 (NCI-H1437, cell line NCI-H1437 (lung)) was > 30 µM, the IC50 [16] was > 30 µM and the EC50 [16] was 9.9 µM. The IC50 (NCI-H1563, cell line NCI-H1563) was > 30 µM, the IC50 (NCI-H1573, cell line NCI-H1573 (lung)) was 1.5 µM and the EC50 (NCI-H1581, NCI-H1581 cells) was 15.4 µM. The IC50 [17] was 14.7 µM, the EC50 [17] was 15.4 µM and the IC50 (NCI-H1623, cell line NCI-H1623 (lung)) was > 30 µM. For the same compound, the IC50 (NCI-H1623, cell line NCI-H1623) was > 30 µM, the IC50 (NCI-H1650, NCI-H1650 (lung)) was 26.2 µM and the IC50 (NCI-H1650, cell line NCI-H1650 (lung)) was 26.2 µM. The IC50 (NCI-H1651, NCI-H1651 cells) was > 30 µM and the IC50 (NCI-H1651, cell line NCI-H1651 (lung)) was > 30 µM.
